The values that follow come from patent US20110117168A1, “METHODS AND COMPOSITIONS FOR SOFT TISSUE REPAIR” (AFFINERGY, INC., priority 2009, published 2011).

Ends that are not written are not given here.

Assay [1] relates to human ASCs. Nature of the assay: Biotinylated peptide cell binding specificity by flow cytometry (Neutravidin-PE). Format: cell-based. Particulars: 25 μM peptide solution, 30 min at 4° C. From the text:
(§1) The synthetic biotinylated cell binding peptide SEQ ID NO: 4 was examined for its ability to specifically bind MSCs compared to a number of other cells types including adipose-derived mesenchymal stem cells (ASCs), dermal fibroblasts, rodent MSCs, red blood cells, monocytes, lymphocytes and granulocytes. The cell binding peptide was biotinylated as described herein at Example 2. Cultured cells of each type were either purchased (ASCs and dermal fibroblasts) or isolated from rodent bone marrow (rodent MSCs) or human blood. Cells were first harvested and resuspended at 10^6/mL in PBS+2% fetal bovine serum (FBS). An aliquot of cells (50 μL) was incubated in 50 μL of peptide solution (25 μM in PBS+FBS) for 30 min at 4° C. Cells were then washed twice in PBS+FBS with 300×g centrifugation for 5 min between washes. Fluorescently-tagged neutravidin (Neutravidin-PE from INVITROGEN) was then added to the cells to label biotinylated peptide bound to cells. Neutravidin-PE was diluted 1:250 from stock and applied at 50 μL to cells. Cells were then washed in PBS+FBS, and acquired on a BD […]. Peptide reactivity was then measured as percent positivity relative to Neutravidin-PE staining without the addition of biotinylated peptide.

The subject of assay [2] is human MSCs. The description is as above. Format: cell-based. Particulars: 25 μM peptide solution, 30 min at 4° C.
Description: as §1

Assay [3] deals with dermal fibroblasts. The description is as above. Format: cell-based, human. Particulars: 25 μM peptide solution, 30 min at 4° C.
Description: as §1

For assay [4], the system named is UASMCs. Briefly: Biotinylated peptide binding to endothelial and other cells by flow cytometry. Format: cell-based. As to conditions: biotinylated peptide 10 μM, 30 min at 4° C. As to the method:
The synthetic biotinylated binding peptide SEQ ID NO: 4 was further examined for its ability to bind endothelial cells compared to other cell types (see FIG. 16). […] ECFCs are clonally expanded cells isolated from human umbilical cord blood, and are considered highly proliferative endothelial progenitor cells (EPCs) based on their clonogenic and proliferative potential. In another experiment, binding peptide SEQ ID NO: 4 was assayed for its ability to selectively isolate endothelial cells versus smooth muscle cells in the presence of whole blood. HUVECs or UASMCs were incubated in the presence of medium containing 20% whole blood and binding peptide SEQ ID NO: 4-conjugated magnetic beads (via biotin-SA) for 30 min. The solutions containing the bead-peptide-cell complexes were then passed through a […] LS column in a magnetic field. The column was washed, and the remaining peptide-bound cells were then released from the magnetic field and counted.

Assay [5] relates to MSCs. Briefly: Capture of MSCs from bone marrow aspirate, colony forming units. As to conditions: biotinylated peptide, streptavidin-coated MILTENYI beads; compared to CD105 and MSCA-1 antibody beads. Format: cell-based, human. As to the method: (§2) This experiment was performed to examine the ability of cell binding peptide SEQ ID NO: 4 to capture MSCs directly from bone marrow aspirate in comparison to two separate antibodies against the CD105 I antigen (CD105) and the MSCA-1 stem cell antigen (MSCA-1). This experiment employed biotinylated peptides with streptavidin-coated […] magnetic beads. The peptides were biotinylated as described herein at Example 2. […] For the antibody capture experiment, magnetic beads having covalently attached CD105 or MSCA-1 antibody were employed ([…]). Prior to incubation with the peptides and antibodies, bone marrow aspirate (BMA) was mixed with 5 volumes of 10 mM ammonium chloride for 1-2 min at room temperature to lyse red blood cells. The lysate was centrifuged for 5 min at 300×g and the supernatant discarded. The cell pellet was washed with wash buffer (PBS+0.5% bovine serum albumin+0.5 mM EDTA) and cells were resuspended in […] peptide at a concentration of 10^8 per mL. For peptide binding studies, the cell suspension was incubated with the biotinylated peptides for 30 min at 4° C. to allow for binding. After incubation, cells were spun down at 300×g for 5 min, and peptide solution was aspirated. Cells were then rinsed twice with wash buffer, with centrifugation between washes. […] Colony forming units (CFUs) were counted after 14 days in culture. […]

Assay [6] concerns MSCs. Briefly: Immunoreactivity of cells captured from bone marrow aspirate. The assay is classed as cell-based, human. Particulars: CD29, CD44, CD73, CD105, CD166, CD90, CD45, CD34. The method, then: as §2
For assay [7], the system named is MSCs. Briefly: Osteoblast differentiation of peptide-captured MSCs (Alizarin Red S). Format: cell-based, human. As to conditions: 14 days in osteoblast differentiation medium. As to the method: Osteoblast differentiation. For osteogenic differentiation, the MSCs present in the […] column eluants (see Example 6) were cultured for 14 days in complete medium supplemented with 0.1 μM dexamethasone, 50 μM ascorbate-2-phosphate, 10 mM β-glycerophosphate, and 1% antibiotic/antimycotic. Calcium mineralization was measured by Alizarin Red S (SIGMA) staining to reveal mineralizing osteoblasts (see FIG. 26, panel C (undifferentiated MSCs) and panel D (osteoblast differentiated MSCs)).

“SSFWDVCQGDGTCYGGGSR (SSFWDVCQGDGTCYGGGSRGSSG-{K(biotin)}; cysteine pairing not given here) [SEQ ID NO: 4, tested biotinylated with GSSGK(biotin) or other spacer at the C-terminus]”: the “binding to human ASCs (percent positivity relative to Neutravidin-PE staining)” value in assay [1] is “high binding”. Besides, the “binding to human MSCs (percent positivity relative to Neutravidin-PE staining)” value in assay [2] is “high binding”. Besides, in assay [3], the “binding to dermal fibroblasts (percent positivity relative to Neutravidin-PE staining)” value is recorded as “high binding”. The “cross-reactivity with UASMCs” value in assay [4] is “weakly”. Further, the “MSC capture from bone marrow aspirate (CFUs after 14 days in culture)” value in assay [5] is “as efficient as capture by either of the CD105 or MSCA-1 antibodies”. Besides, the “immunoreactivity of isolated cells compared with CD105 isolated cells” value in assay [6] is given as “no changes were observed”. Further, the “osteoblast differentiation of captured MSCs” value in assay [7] is reported as “osteogenic pathway remains intact”.
